The text below walks through data of ChEMBL document CHEMBL3994677, “Discovery of GSK2193874: An Orally Active, Potent, and Selective Blocker of Transient Receptor Potential Vanilloid 4” (ACS Med Chem Lett, 2017).

Data set [1] concerns the target T1, Transient receptor potential cation channel subfamily V member 4 (Homo sapiens, UniProt Q9HBA0). Description: Antagonist activity at human TRPV4 expressed in HEK293 cells assessed as inhibition of GSK634775A-induced calcium influx preincubated for 10 mins followed by GSK634775A addition by […] dye based FLIPR assay. The data set is classed as cell-based.
Data set [2] addresses T2, Voltage-dependent L-type calcium channel subunit alpha-1C (Cavia porcellus, UniProt O35505). Description: Inhibition of Cav1.2 in guinea pig ventricular myocytes assessed as decrease in current amplitude at 0.1 Hz by patch clamp method. The class given is cell-based. For orientation: In patch-clamp work, channel activity is measured electrically.
Data set [3] can be described thus: Half life in po dosed dog. As to conditions: in vivo; call rule not given here. The data set is classed as ADME, organism-based, Canis lupus familiaris.
Data set [4] can be described thus: Clearance in iv dosed rat. The class given is ADME, organism-based. Particulars: in vivo.
Data set [5] is described as follows: Clearance in iv dosed dog. Particulars: in vivo. The class given is ADME, organism-based, Canis lupus familiaris.
Data set [6] has as its target Transient receptor potential cation channel subfamily M member 8 (Homo sapiens, UniProt Q7Z2W7). As to the kind of experiment: Inhibition of TRPM8 (unknown origin).
Data set [7] concerns the target Short transient receptor potential channel 3 (Homo sapiens, UniProt Q13507). Description: Inhibition of TRPC3 (unknown origin).
Data set [8] is described as follows: Half life in po dosed rat. The data set is classed as ADME, organism-based. Particulars: in vivo.
Data set [9] addresses Nuclear receptor subfamily 1 group I member 2 (Homo sapiens, UniProt O75469). As to the kind of experiment: Activation of PXR (unknown origin). As to conditions: human. The class given is ADME.
Data set [10] addresses T3, Transient receptor potential cation channel subfamily V member 4 (Rattus norvegicus, UniProt Q9ERZ8). As to the kind of experiment: Antagonist activity at rat TRPV4 expressed in HEK293 cells assessed as inhibition of GSK634775A-induced calcium influx preincubated for 10 mins followed by GSK634775A addition by […] dye based FLIPR assay. The data set is classed as cell-based.

Data set [11] deals with Transient receptor potential cation channel subfamily A member 1 (Homo sapiens, UniProt O75762). Description: Inhibition of TRPA1 (unknown origin).
Data set [12] can be described thus: Oral bioavailability in dog. The class given is ADME, organism-based, Canis lupus familiaris. As to conditions: in vivo.
The target of data set [13] is Transient receptor potential cation channel subfamily V member 1 (Homo sapiens, UniProt Q8NER1). As to the kind of experiment: Inhibition of TRPV1 (unknown origin).
Data set [14] in a line: Oral bioavailability in rat. The data set is classed as ADME, organism-based. Particulars: in vivo.
In data set [15] the target is T2, Voltage-dependent L-type calcium channel subunit alpha-1C. As to the kind of experiment: Inhibition of Cav1.2 in guinea pig ventricular myocytes assessed as decrease in current amplitude at 2 Hz by patch clamp method. The data set is classed as cell-based.
In data set [16] the target is Short transient receptor potential channel 6 (Homo sapiens, UniProt Q9Y210). As to the kind of experiment: Inhibition of TRPC6 (unknown origin).
Data set [17] has as its target T4, Transient receptor potential cation channel subfamily V member 4 (Mus musculus, UniProt Q9EPK8). Description: Antagonist activity at mouse TRPV4 expressed in HEK293 cells assessed as inhibition of 4alpha-PDD-induced intracellular calcium after 10 mins in presence of 45Ca2+ by microbeta liquid scintillation counting method. The class given is cell-based. A general note: A change in cytosolic calcium serves as a functional read-out for many receptors and channels.

The target of data set [18] is T3, Transient receptor potential cation channel subfamily V member 4. As to the kind of experiment: Antagonist activity at rat TRPV4 expressed in HEK293 cells assessed as inhibition of 4alpha-PDD-induced intracellular calcium after 10 mins in presence of 45Ca2+ by microbeta liquid scintillation counting method. The class given is cell-based.
The target is the same in data set [19]. As to the kind of experiment: Antagonist activity at rat TRPV4 expressed in HEK293 cells assessed as inhibition of 4alpha-PDD-induced current at holding potential of -40 mV by Whole cell patch-clamp method. The class given is cell-based.
For data set [20], the target named is T4, Transient receptor potential cation channel subfamily V member 4. As to the kind of experiment: Antagonist activity at mouse TRPV4 expressed in HEK293 cells assessed as inhibition of 4alpha-PDD-induced current at holding potential of -40 mV by Whole cell patch-clamp method. The data set is classed as cell-based.
The target in data set [21] is T1, Transient receptor potential cation channel subfamily V member 4.
Description: Antagonist activity at human TRPV4 expressed in HEK293 cells assessed as inhibition of 4alpha-PDD-induced current at holding potential of -40 mV by Whole cell patch-clamp method

T3 sequence (Q9ERZ8 whole entry): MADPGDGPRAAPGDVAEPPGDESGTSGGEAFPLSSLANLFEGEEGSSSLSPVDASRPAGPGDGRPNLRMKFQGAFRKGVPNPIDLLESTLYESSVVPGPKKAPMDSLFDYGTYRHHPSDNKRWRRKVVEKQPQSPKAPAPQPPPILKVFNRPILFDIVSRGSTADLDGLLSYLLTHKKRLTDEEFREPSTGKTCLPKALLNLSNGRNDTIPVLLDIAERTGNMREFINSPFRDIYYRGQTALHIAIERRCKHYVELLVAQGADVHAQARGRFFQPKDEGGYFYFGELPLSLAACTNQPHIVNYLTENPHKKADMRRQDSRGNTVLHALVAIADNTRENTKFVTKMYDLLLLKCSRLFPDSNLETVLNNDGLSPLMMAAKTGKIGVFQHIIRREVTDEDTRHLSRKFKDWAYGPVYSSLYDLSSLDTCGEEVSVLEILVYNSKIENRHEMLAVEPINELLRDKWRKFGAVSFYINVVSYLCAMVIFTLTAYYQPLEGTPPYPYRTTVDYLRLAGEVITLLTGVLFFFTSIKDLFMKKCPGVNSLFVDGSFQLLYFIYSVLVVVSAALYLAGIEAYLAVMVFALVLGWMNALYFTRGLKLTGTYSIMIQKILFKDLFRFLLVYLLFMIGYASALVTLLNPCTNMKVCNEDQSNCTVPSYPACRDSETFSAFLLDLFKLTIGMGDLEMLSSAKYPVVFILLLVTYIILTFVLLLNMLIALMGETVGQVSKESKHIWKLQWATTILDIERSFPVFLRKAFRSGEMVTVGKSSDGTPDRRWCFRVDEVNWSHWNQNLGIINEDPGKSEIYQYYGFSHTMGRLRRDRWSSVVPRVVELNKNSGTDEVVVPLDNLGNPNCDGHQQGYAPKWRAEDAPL
T4 sequence (Q9EPK8 whole entry): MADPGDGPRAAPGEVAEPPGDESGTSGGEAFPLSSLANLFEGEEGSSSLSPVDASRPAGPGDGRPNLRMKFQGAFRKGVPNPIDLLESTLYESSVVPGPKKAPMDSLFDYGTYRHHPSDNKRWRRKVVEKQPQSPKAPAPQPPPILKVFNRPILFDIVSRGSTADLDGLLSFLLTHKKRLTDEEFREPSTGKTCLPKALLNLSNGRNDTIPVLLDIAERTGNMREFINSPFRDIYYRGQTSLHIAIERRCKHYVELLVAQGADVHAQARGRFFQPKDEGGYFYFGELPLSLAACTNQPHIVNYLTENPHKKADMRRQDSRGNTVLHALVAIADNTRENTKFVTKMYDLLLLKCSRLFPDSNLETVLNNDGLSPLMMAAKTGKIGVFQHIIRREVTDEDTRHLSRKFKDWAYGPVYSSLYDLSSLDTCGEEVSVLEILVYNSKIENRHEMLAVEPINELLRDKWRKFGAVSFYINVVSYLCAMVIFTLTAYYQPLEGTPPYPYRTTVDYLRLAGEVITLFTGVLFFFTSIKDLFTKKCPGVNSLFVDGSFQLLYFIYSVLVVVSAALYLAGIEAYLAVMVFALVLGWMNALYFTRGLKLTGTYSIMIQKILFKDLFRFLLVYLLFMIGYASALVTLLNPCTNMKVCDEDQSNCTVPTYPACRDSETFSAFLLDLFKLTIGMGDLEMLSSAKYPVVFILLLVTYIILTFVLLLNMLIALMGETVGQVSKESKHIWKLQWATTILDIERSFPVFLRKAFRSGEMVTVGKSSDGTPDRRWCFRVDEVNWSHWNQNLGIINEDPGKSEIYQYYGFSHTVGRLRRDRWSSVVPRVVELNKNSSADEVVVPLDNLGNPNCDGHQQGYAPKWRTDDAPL
T1 sequence (Q9HBA0 whole entry): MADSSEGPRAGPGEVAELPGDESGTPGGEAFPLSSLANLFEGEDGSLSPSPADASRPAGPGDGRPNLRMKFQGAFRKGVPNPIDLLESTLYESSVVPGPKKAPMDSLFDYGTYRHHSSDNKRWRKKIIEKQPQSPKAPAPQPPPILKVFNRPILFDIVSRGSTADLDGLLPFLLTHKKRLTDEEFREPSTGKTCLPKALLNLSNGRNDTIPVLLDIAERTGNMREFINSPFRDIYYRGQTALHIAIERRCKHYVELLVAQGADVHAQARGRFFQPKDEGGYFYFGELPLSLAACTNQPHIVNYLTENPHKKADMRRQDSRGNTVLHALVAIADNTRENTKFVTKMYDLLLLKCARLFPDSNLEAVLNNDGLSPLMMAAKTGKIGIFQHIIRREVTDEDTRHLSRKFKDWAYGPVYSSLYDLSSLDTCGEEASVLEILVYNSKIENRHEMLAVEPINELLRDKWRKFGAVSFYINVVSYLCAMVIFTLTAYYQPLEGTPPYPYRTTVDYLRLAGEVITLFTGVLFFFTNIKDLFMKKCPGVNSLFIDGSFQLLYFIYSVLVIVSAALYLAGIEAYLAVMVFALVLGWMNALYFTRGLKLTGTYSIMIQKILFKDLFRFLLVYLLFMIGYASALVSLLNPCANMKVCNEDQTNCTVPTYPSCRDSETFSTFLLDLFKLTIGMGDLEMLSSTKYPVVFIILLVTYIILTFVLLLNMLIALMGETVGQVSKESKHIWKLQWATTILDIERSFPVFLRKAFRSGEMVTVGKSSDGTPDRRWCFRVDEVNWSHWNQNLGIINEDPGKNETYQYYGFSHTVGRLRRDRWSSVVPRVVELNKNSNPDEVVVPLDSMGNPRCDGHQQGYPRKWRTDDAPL
T2 sequence (O35505 whole entry): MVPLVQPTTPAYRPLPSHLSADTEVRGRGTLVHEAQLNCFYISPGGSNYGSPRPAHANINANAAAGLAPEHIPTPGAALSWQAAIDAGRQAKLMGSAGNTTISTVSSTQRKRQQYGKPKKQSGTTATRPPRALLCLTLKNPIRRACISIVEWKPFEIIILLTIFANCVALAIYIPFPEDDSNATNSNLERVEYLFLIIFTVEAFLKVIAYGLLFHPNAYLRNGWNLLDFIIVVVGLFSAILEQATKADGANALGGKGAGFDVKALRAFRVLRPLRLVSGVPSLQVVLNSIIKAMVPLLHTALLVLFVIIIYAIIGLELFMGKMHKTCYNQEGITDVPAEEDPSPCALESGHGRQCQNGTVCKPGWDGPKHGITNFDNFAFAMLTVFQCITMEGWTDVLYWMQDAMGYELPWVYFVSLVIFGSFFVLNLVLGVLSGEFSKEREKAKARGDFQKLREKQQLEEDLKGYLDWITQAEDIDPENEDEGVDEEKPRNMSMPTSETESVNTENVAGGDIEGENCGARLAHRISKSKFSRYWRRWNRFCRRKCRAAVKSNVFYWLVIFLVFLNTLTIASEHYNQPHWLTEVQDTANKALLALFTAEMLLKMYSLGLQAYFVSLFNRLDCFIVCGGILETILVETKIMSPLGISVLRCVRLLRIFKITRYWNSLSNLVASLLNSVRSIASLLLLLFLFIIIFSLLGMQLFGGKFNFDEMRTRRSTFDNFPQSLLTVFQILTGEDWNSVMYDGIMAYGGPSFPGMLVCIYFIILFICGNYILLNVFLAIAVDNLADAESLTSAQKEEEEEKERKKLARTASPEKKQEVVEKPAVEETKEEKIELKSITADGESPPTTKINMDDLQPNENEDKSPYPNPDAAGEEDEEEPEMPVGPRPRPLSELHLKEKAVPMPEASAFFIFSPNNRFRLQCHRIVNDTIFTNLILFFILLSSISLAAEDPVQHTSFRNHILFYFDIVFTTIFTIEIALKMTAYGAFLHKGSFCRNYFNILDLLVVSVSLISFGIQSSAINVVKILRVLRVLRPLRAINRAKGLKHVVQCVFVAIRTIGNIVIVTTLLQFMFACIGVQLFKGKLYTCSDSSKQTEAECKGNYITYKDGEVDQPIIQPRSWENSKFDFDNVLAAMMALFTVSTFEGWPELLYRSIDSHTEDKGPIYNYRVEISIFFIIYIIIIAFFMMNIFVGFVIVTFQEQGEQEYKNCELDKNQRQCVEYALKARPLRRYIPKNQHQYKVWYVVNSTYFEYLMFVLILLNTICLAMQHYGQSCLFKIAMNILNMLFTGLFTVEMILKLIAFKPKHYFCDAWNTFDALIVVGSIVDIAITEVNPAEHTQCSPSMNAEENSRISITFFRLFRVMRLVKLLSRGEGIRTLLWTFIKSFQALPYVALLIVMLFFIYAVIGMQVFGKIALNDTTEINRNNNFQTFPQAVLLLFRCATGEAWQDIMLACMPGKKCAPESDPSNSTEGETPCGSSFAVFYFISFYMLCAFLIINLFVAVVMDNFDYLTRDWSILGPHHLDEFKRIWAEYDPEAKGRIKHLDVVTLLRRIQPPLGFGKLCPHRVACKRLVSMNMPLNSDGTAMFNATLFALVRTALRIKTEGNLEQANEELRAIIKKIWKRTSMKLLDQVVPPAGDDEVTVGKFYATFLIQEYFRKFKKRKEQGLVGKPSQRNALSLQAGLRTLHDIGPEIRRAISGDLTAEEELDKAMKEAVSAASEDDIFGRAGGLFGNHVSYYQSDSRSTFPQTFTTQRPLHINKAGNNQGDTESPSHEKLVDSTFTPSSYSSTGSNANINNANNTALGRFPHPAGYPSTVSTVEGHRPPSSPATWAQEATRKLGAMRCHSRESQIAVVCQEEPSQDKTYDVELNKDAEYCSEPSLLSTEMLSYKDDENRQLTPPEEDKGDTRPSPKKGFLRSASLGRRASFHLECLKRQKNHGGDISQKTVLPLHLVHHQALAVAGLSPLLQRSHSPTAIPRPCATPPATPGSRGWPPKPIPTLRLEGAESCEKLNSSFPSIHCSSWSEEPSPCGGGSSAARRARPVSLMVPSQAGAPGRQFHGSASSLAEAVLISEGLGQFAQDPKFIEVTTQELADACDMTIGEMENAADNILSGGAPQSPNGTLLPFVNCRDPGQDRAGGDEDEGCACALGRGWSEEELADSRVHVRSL

As for `O=C(NC1(c2ccccc2)CC1)c1c(CN2CCC(N3CCCCC3)CC2)c(-c2cccc(C(F)(F)F)c2)nc2cc(Br)ccc12`, the IC50 (in general, the concentration that inhibits the measured activity by half) in data set [1] is 0.04 µM; in [6], over 25 µM; in data set [7], over 25 µM; in [10] it was 0.002 µM; in data set [11] it was over 25 µM; in data set [13], over 25 µM. The IC50 in [16] was over 25 µM. In addition, the IC30 in [2] and in data set [15] was 10.5 µM each time. Further, the half-life (as a rule, how long it takes for the measured level to halve) in data set [3] was 31 h; in [8] it was 10 h. In addition, the clearance (commonly the rate of elimination divided by the concentration) came to 7.3 mL/min/kg in data set [4] and 6.9 mL/min/kg in data set [5]. For the same compound, in [9], the Activity entry is listed as “Not Active”. Besides, the figures for the bioavailability in data set [12] and in [14] were 53% and 31%, respectively.
Regarding `CC(C)NCCN(C(C)C)S(=O)(=O)c1ccc(Cl)cc1Cl`, the figures for the IC50 in data set [17] and in data set [18] were 5.9 µM and 3.2 µM, respectively.
With `Cc1c(C(=O)Nc2cccc(C(F)(F)F)c2)cc(-c2ccccc2)n1CCCN1CCOCC1`, the IC50 in data set [19] was found to be 0.133 µM; in data set [20], 0.017 µM; in data set [21], 0.048 µM.
